Our source for the EC50 values is patent publication US20100249071A1, “Modulators of S1P and Methods of Making And Using” (Exelixis, Inc., priority 2009, published 2010).

Assay [1] concerns the target T1, S1P1 (Homo sapiens, UniProt P21453).
T1 construct: host or cells: U2OS
Nature of the assay: Tango β-arrestin recruitment assay in U2OS cells (Assay 2b). The assay is classed as cell-based. The method, boiled down:
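In this agonist-mode Tango assay, U2OS cells carrying S1P1 and the reporter were serum-starved 48 h, then exposed overnight at 37 °C to compound (10 points, 3-fold, top 1 μM, 1% DMSO). β-Lactamase F460/F530 ratio was normalized to 1 μM S1P, and EC50 was fitted.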
(Recruitment of arrestin is a read-out of receptor activation apart from second messengers.)

In assay [2] the target is T2, hS1P1R (hEdg1) membrane protein (Homo sapiens, UniProt P21453).
T2 construct: purchased Lonza
T2 sequence (P21453 whole entry): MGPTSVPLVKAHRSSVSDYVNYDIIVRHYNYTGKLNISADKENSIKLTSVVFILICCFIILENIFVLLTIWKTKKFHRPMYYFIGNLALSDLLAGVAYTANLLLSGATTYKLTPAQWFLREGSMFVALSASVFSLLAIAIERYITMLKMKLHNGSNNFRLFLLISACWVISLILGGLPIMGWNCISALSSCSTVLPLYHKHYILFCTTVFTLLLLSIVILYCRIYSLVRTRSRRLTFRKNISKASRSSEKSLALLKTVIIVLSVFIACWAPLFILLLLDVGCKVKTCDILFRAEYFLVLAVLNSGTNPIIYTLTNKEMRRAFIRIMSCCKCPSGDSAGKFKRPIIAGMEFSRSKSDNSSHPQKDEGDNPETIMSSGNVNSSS
Nature of the assay: hS1P1R GTPγS binding assay (Assay 3a). The assay is classed as biochemical. The method, boiled down: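 Membranes (4 μg) expressing hS1P1R incubated 1 h at room temperature with 30 μM GDP, 0.1 nM [^35S]GTPγS, 0.25% fatty acid free BSA and serially diluted agonist in Tris-HCl pH 7.9/NaCl/MgCl2/EGTA buffer. Bound [^35S]GTPγS captured on WGA SPA beads (further 1 h) and counted.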

In assay [3] the target is T3, hS1PR5 (hEdg8) membrane protein (Homo sapiens, UniProt Q9H228).
T3 construct: expressed in transfected cells; host or cells: CHO
T3 sequence (Q9H228 whole entry): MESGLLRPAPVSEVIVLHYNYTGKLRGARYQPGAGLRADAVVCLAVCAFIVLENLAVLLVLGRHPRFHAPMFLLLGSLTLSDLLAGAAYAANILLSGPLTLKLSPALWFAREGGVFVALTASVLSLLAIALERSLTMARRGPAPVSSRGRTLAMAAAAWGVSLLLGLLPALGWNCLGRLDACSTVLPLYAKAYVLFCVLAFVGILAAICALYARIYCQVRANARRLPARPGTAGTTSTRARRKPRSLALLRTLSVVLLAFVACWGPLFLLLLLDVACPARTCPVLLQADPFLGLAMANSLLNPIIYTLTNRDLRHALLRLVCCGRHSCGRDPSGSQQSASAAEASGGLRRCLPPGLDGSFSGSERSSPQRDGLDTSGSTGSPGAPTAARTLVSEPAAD
In words: hS1P5R GTPγS binding assay (Assay 4). The assay is classed as biochemical. The method, boiled down:
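Membranes (5 μg) from CHO cells expressing hS1PR5, incubated 1 h at room temperature with 30 μM GDP, 0.1 nM [35S]GTPγS, 0.25% fatty acid free BSA and serially diluted compound in pH 7.9 Tris buffer with MgCl2. WGA SPA beads added for another 1 h, then bound [35S]GTPγS counted by scintillation.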
Background: GTPγS resists hydrolysis and so accumulates on activated G proteins.

Assay [4] has as its target T4, S1P3 (Homo sapiens, UniProt Q99500).
T4 construct: host or cells: HEK293 (transient transfection)
Nature of the assay: S1P3 Tango β-arrestin recruitment assay in HEK293 cells (Assay 5). The assay is classed as cell-based. In short, it runs like this: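 HEK293 cells transiently expressing S1P3 fused via TEV-cleavable linker to tTA, with β-arrestin2–TEV, treated 16-18 h at 37 °C with compounds (top 10 μM, 10-point 3-fold, 1% DMSO). Luciferase reporter luminescence normalised to DMSO background and 5 μM S1P control as percent activity; EC50 from concentration-response curves.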

[5] abbreviates: * = rEC50 measured rather than EC50, read-out: Assay 2b rEC50 (relative EC50, cells marked *).
Where [6] appears, read: * = rEC50 measured rather than EC50, read-out: Assay 5 rEC50 (relative EC50, cells marked *).

Where two headings read alike, the source gives them in different places.

Usually EC50 stands for the concentration needed to bring the measured effect to its halfway point.

T1 sequence (P32121 whole entry): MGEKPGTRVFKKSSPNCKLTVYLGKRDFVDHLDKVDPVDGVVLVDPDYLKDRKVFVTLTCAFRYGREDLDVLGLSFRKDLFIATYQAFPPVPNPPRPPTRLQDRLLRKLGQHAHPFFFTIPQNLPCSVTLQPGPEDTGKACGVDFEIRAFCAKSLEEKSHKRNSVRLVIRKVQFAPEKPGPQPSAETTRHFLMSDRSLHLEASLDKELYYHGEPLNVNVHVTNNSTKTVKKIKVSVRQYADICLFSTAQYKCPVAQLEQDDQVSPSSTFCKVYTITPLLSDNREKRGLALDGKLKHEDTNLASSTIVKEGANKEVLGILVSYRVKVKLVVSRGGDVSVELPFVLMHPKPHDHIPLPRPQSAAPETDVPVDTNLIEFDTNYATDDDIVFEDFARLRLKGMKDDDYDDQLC
T1 sequence (P21453 whole entry): as the sequence (P21453 whole entry) above
T4 sequence (P32121 whole entry): as the sequence (P32121 whole entry) above
T4 sequence (Q99500 whole entry): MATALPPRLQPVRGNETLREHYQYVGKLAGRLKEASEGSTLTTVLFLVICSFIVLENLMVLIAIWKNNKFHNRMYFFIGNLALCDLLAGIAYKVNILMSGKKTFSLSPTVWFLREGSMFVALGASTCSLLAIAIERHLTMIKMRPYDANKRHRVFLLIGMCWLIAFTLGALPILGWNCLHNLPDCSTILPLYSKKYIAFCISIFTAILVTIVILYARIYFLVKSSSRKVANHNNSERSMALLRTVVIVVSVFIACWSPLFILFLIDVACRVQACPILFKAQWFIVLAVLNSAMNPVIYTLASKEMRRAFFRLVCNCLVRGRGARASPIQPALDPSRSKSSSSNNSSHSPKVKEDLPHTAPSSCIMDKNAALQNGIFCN

Turning to `CCOc1ccc(-c2nnc(-c3cc(F)c(OC[C@H](N)CO)cc3Cl)s2)cc1C#N` [Entry 76, 5-[5-(4-{[(2R)-2-amino-3-hydroxyporpyl]oxy}-2-chloro-5-fluorophenyl)-1,3,4-thiadiazol-2-yl]-2-(ethyloxy)benzonitrile], the EC50 in assay [1] (read-out: Assay 2b EC50) was 0.01 to 0.05 µM; in assay [2], not above 0.01 µM; in assay [3], 0.05 to 0.25 µM; in assay [4] (read-out: Assay 5 EC50) it was more than 10 µM.

Turning to `CC(C)Oc1ccc(-c2nnc(-c3cc(F)c(OC[C@@H](N)[C@H](C)O)cc3Cl)s2)cc1Cl` [Entry 71, (2S,3R)-3-amino-4-{[5-chloro-4-(5-{3-chloro-4-[(1-methylethyl)oxy]phenyl}-1,3,4-thiadiazol-2-yl)-2-fluorophenyl]oxy}butan-2-ol], the EC50 was not above 0.01 µM in assay [1] (setting [5]), not above 0.01 µM in assay [2], 0.01 to 0.05 µM in assay [3] and not above 0.25 µM in assay [4] (read-out: Assay 5 EC50).

Turning to `CC(C)Oc1ccc(-c2nnc(-c3cc(F)c(OC[C@H](N)CO)cc3Cl)s2)cc1C(F)(F)F` [Entry 18, (2R)-2-amino-3-{[5-chloro-2-fluoro-4-(5-{4-[(1-methylethyl)oxy]-3-(trifluoromethyl)phenyl}-1,3,4-thiadiazol-2-yl)phenyl]oxy}propan-1-ol], the EC50 was 0.01 to 0.05 µM in assay [1] (read-out: Assay 2b EC50), not above 0.01 µM in assay [2], 0.01 to 0.05 µM in assay [3] and more than 10 µM in assay [4] (read-out: Assay 5 EC50).

With “(1R,2R)-2-amino-3-{[5-chloro-2-fluoro- 4-(5-{6-[(1-methylethyl)amino]pyridin- 3-yl}-1,3,4-thiadiazol-2-yl)phenyl]oxy}- 1-methylpropyl dihydrogen phosphate [Entry 102]”, the EC50 in assay [1] (setting [5]) was not above 0.01 µM; in assay [2], not above 0.01 µM; in assay [3], not above 0.01 µM; in assay [4] (read-out: Assay 5 EC50), not above 0.25 µM.

Consider `CC(C)Oc1ccc(-c2nnc(-c3cc(F)c(OC[C@@H](N)COP(=O)(O)O)cc3Cl)s2)cc1Cl` [Entry 16, (2R)-2-amino-3-{[5-chloro-4-(5-{3-chloro-4-[(1-methylethyl)oxy]phenyl}-1,3,4-thiadiazol-2-yl)-2-fluorophenyl]oxy}propyl dihydrogen phosphate], for which the EC50 was not above 0.01 µM in assay [1] (read-out: Assay 2b EC50), not above 0.01 µM in assay [2], 0.01 to 0.05 µM in assay [3] and not above 0.25 µM in assay [4] (setting [6]).

`CC(C)Nc1ccc(-c2nnc(-c3cc(F)c(OC[C@H](N)CO)cc3Cl)s2)cc1Cl` [Entry 43, (2R)-2-amino-3-{[5-chloro-4-(5-{3-chloro-4-[(1-methylethyl)amino]phenyl}-1,3,4-thiadiazol-2-yl)-2-fluorophenyl]oxy}propan-1-ol]: the EC50 is 0.05 to 0.25 µM in assay [1] (read-out: Assay 2b EC50), not above 0.01 µM in assay [2], 0.01 to 0.05 µM in assay [3] and more than 10 µM in assay [4] (read-out: Assay 5 EC50).

Turning to `CC(C)Nc1ccc(-c2nnc(-c3cc(F)c(OC[C@@H](N)COP(=O)(O)O)cc3Cl)s2)cn1` [Entry 47, (2R)-2-amino-3-{[5-chloro-2-fluoro-4-(5-{6-[(1-methylethyl)amino]pyridin-3-yl}-1,3,4-thiadiazol-2-yl)phenyl]oxy}propyl dihydrogen phosphate], the EC50 is not above 0.01 µM in assay [1] (read-out: Assay 2b EC50), not above 0.01 µM in assay [2], not above 0.01 µM in assay [3] and not above 0.25 µM in assay [4] (read-out: Assay 5 EC50).

In the case of `CC(C)Nc1ccc(-c2nnc(-c3cc(F)c(OC[C@H](N)COP(=O)(O)O)cc3Cl)s2)cn1` [Entry 52, (2S)-2-amino-3-{[5-chloro-2-fluoro-4-(5-{6-[(1-methylethyl)amino]pyridin-3-yl}-1,3,4-thiadiazol-2-yl)phenyl]oxy}propyl dihydrogen phosphate], the EC50 in assay [1] (read-out: Assay 2b EC50) was not above 0.01 µM; in assay [2], not above 0.01 µM; in assay [3] it was not above 0.01 µM; in assay [4] (setting [6]), more than 0.25 µM.

For the compound `CCOc1ccc(-c2nnc(-c3cc(F)c(OC[C@H](N)CO)cc3Cl)s2)cc1Cl` [Entry 25, (2R)-2-amino-3-[(5-chloro-4-{5-[3-chloro-4-(ethyloxy)phenyl]-1,3,4-thiadiazol-2-yl}-2-fluorophenyl)oxy]propan-1-ol], the EC50 was 0.01 to 0.05 µM in assay [1] (read-out: Assay 2b EC50), 0.01 to 0.05 µM in assay [2], 0.05 to 0.25 µM in assay [3] and more than 10 µM in assay [4] (read-out: Assay 5 EC50).

For `CC(C)Oc1ccc(-c2nnc(-c3cc(F)c(OC[C@H](N)CO)c(Cl)c3)s2)cc1Cl` [Entry 40, (2R)-2-amino-3-{[2-chloro-4-(5-{3-chloro-4-[(1-methylethyl)oxy]phenyl}-1,3,4-thiadiazol-2-yl)-6-fluorophenyl]oxy}propan-1-ol], the EC50 in assay [1] (read-out: Assay 2b EC50) was 0.01 to 0.05 µM; in assay [2], not above 0.01 µM; in assay [3] it was 0.01 to 0.05 µM; in assay [4] (read-out: Assay 5 EC50), more than 10 µM.

As to `CCCOc1ccc(-c2nnc(-c3cc(F)c(OC[C@H](N)CO)cc3Cl)s2)cc1Cl` [Entry 17, (2R)-2-amino-3-[(5-chloro-4-{5-[3-chloro-4-(propyloxy)phenyl]-1,3,4-thiadiazol-2-yl}-2-fluorophenyl)oxy]propan-1-ol], the EC50 is 0.05 to 0.25 µM in assay [1] (read-out: Assay 2b EC50), 0.01 to 0.05 µM in assay [2], 0.05 to 0.25 µM in assay [3] and more than 10 µM in assay [4] (read-out: Assay 5 EC50).

Take `CC(C)Oc1ccc(-c2nnc(-c3cc(F)c(OC[C@H](N)[C@@H](C)O)cc3Cl)s2)cc1C#N` [Entry 82, 5-[5-(4-{[(2S,3R)-2-amino-3-hydroxybutyl]oxy}-2-chloro-5-fluorophenyl)-1,3,4-thiadiazol-2-yl]-2-[(1-methylethyl)oxy]benzonitrile]: the EC50 was not above 0.01 µM in assay [1] (read-out: Assay 2b EC50), not above 0.01 µM in assay [2], 0.01 to 0.05 µM in assay [3] and more than 10 µM in assay [4] (read-out: Assay 5 EC50).

Turning to `CC(C)Oc1ccc(-c2nnc(-c3cc(F)c(OC[C@@H](N)[C@@H](C)O)cc3Cl)s2)cc1C#N` [Entry 86, 5-[5-(4-{[(2R,3R)-2-amino-3-hydroxybutyl]oxy}-2-chloro-5-fluorophenyl)-1,3,4-thiadiazol-2-yl]-2-[(1-methylethyl)oxy]benzonitrile], the EC50 in assay [1] (read-out: Assay 2b EC50) is not above 0.01 µM; in assay [2], not above 0.01 µM; in assay [3], 0.01 to 0.05 µM; in assay [4] (setting [6]), more than 0.25 µM.

For `COCCOc1ccc(-c2nnc(-c3cc(F)c(OC[C@H](N)CO)cc3Cl)s2)cc1C#N` [Entry 78, 5-[5-(4-{[(2R)-2-amino-3-hydroxyporpyl]oxy}-2-chloro-5-fluorophenyl)-1,3,4-thiadiazol-2-yl]-2-{[2-(methyloxy)ethyl]oxy}benzonitrile], the EC50 in assay [1] (read-out: Assay 2b EC50) is 0.01 to 0.05 µM; in assay [2], 0.05 to 0.25 µM; in assay [3], 0.25 to 2.8 µM; in assay [4] (read-out: Assay 5 EC50), more than 10 µM.

On to `Cc1cc(-c2nnc(-c3cc(F)c(OC[C@@H](N)[C@@H](C)O)cc3Cl)s2)cc(NC(C)C)n1` [Entry 97, (2R,3R)-3-amino-4-{[5-chloro-2-fluoro-4-(5-{2-methyl-6-[(1-methylethyl)amino]pyridin-4-yl}-1,3,4-thiadiazol-2-yl)phenyl]oxy}butan-2-ol], for which the EC50 in assay [1] (read-out: Assay 2b EC50) was not above 0.01 µM; in assay [2], not above 0.01 µM; in assay [3], 0.05 to 0.25 µM; in assay [4] (read-out: Assay 5 EC50), more than 0.25 µM.

For the compound `CC(C)Nc1ccc(-c2nnc(-c3cc(F)c(OC[C@H](N)[C@H](C)OP(=O)(O)O)cc3Cl)s2)cn1` [Entry 54, (1S,2S)-2-amino-3-{[5-chloro-2-fluoro-4-(5-{6-[(1-methylethyl)amino]pyridin-3-yl}-1,3,4-thiadiazol-2-yl)phenyl]oxy}-1-methylpropyl dihydrogen phosphate], the EC50 is not above 0.01 µM in assay [1] (read-out: Assay 2b EC50), not above 0.01 µM in assay [2], 0.01 to 0.05 µM in assay [3] and more than 0.25 µM in assay [4] (read-out: Assay 5 EC50).

For the compound `N[C@H](CO)COc1cc(Cl)c(-c2nnc(-c3cc(F)cc(Br)c3)s2)cc1F` [Entry 24, (2R)-2-amino-3-({4-[5-(3-bromo-5-fluorophenyl)-1,3,4-thiadiazol-2-yl]-5-chloro-2-fluorophenyl}oxy)propan-1-ol], the EC50 in assay [1] (read-out: Assay 2b EC50) is 0.05 to 0.25 µM; in assay [2] it was 0.25 to 2.8 µM; in assay [3] it was 0.25 to 2.8 µM; in assay [4] (read-out: Assay 5 EC50), more than 10 µM.

Regarding `Cc1nc(-c2nnc(-c3cc(F)c(OC[C@H](N)[C@@H](C)O)cc3Cl)s2)ccc1NC(C)C` [Entry 103, (2R,3S)-3-amino-4-{[5-chloro-2-fluoro-4-(5-{6-methyl-5-[(1-methylethyl)amino]pyridin-2-yl}-1,3,4-thiadiazol-2-yl)phenyl]oxy}butan-2-ol], the EC50 in assay [1] (read-out: Assay 2b EC50) is 0.01 to 0.05 µM; in assay [2] it was 0.01 to 0.05 µM; in assay [3] it was 0.01 to 0.05 µM; in assay [4] (read-out: Assay 5 EC50), more than 0.25 µM.

For the compound `CC(C)Oc1ccc(-c2nnc(-c3cc(F)c(OCC(N)CO)cc3Cl)s2)cn1` (stereo not shown) [Entry 19, 2-amino-3-{[5-chloro-2-fluoro-4-(5-{6-[(1-methylethyl)oxy]pyridin-3-yl}-1,3,4-thiadiazol-2-yl)phenyl]oxy}propan-1-ol], the EC50 was not above 0.01 µM in assay [1] (read-out: Assay 2b EC50), 0.05 to 0.25 µM in assay [2], 0.25 to 2.8 µM in assay [3] and more than 0.25 µM in assay [4] (read-out: Assay 5 EC50).
